Consider 26 compounds from patent US20250129078A1, “ERBB2 INHIBITORS” (Cogent Biosciences, Inc., priority 2023, published 2025).

Usually IC50 stands for the concentration that inhibits the measured activity by half.

The assay addresses EGFR WT (Homo sapiens (Human), UniProt P00533). Nature of the assay: ErbB enzyme assay (CisBio HTRF-KinEASE-TK), EGFR WT. In kind it is biochemical. The settings on record: ATP at Km (25 μM), 1 h incubation. The method in brief: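 Compounds, serially diluted three-fold, were incubated with enzyme for 1 h at ambient temperature. Detection reagents were then added for a further hour, and the 655/620 nm HTRF ratio was normalised to uninhibited and pre-quenched controls. IC50 was fitted with a four-parameter logistic model.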

A value given as a limit tells only on which side of the number the result lay.

Sequence of EGFR WT (P00533 25-1210): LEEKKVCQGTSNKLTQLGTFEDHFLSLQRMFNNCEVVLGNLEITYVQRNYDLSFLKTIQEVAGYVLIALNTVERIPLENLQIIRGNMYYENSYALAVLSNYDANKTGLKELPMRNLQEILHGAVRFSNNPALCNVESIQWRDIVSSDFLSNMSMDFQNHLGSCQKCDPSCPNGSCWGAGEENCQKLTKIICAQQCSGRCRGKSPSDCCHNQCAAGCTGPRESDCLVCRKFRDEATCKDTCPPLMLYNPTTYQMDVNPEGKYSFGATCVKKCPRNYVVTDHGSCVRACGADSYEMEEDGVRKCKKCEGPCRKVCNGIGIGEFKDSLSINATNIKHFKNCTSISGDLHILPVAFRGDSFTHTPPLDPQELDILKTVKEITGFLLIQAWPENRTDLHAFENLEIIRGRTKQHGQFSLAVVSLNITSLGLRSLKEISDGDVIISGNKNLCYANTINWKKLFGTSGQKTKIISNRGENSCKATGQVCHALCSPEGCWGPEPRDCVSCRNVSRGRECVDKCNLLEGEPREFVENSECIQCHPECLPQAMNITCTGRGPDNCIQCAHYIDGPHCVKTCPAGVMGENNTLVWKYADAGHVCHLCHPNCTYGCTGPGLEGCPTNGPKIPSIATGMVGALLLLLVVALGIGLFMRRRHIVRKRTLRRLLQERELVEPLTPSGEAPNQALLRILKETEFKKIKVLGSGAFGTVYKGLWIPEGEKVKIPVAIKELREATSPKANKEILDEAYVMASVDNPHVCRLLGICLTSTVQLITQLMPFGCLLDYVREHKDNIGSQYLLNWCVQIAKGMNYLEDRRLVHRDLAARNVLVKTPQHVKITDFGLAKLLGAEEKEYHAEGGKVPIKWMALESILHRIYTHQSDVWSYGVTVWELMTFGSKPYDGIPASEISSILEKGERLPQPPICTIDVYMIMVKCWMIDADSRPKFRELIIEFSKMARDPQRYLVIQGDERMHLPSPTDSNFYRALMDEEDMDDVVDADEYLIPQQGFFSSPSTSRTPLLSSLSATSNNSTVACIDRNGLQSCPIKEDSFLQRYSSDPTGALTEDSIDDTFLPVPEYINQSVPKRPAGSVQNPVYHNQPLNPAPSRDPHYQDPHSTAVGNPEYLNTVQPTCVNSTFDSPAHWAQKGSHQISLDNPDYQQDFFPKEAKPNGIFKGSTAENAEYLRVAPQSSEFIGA

Take `C=CC(=O)N[C@H]1CCN(c2ccc3ncnc(Nc4ccc(Oc5ccc6c(c5)nnn6C)c(C)c4F)c3n2)C[C@H]1F` [Compound 281, N-((3R,4S)-3-fluoro-1-(4-((2-fluoro-3-methyl-4-((1-methyl-1H-benzo[d][1,2,3]triazol-5-yl)oxy)phenyl)amino)pyrido[3,2-d]pyrimidin-6-yl)piperidin-4-yl)acrylamide]: the IC50 was under 50 nM.

Regarding `C=CC(=O)N1CC2CCC1CN2c1ccc2ncnc(Nc3ccc(Oc4ccc5c(c4)nnn5C)c(C)c3)c2n1` (centres unmarked) [Compound 82, 1-(5-(4-((3-methyl-4-((1-methyl-1H-benzo[d][1,2,3]triazol-5-yl)oxy)phenyl)amino)pyrido[3,2-d]pyrimidin-6-yl)-2,5-diazabicyclo[2.2.2]octan-2-yl)prop-2-en-1-one], the IC50 is under 50 nM.

For `C=CC(=O)N1CCN(c2ccc3ncnc(Nc4cc(C)c(Oc5cc(F)c6c(c5)ncn6C)cc4OC)c3n2)CC1` [Compound 372, 1-(4-(4-((4-((7-fluoro-1-methyl-1H-benzo[d]imidazol-5-yl)oxy)-2-methoxy-5-methylphenyl)amino)pyrido[3,2-d]pyrimidin-6-yl)piperazin-1-yl)prop-2-en-1-one], the IC50 was 100 to 500 nM.

Compound `C=CC(=O)N1CCN(c2ncc3ncnc(Nc4ccc(Oc5ccc6c(c5)ncn6C(F)F)c(C)c4)c3n2)C[C@H]1C` [Compound 162, (R)-1-(4-(8-((4-((1-(difluoromethyl)-1H-benzo[d]imidazol-5-yl)oxy)-3-methylphenyl)amino)pyrimido[5,4-d]pyrimidin-2-y1)-2-methylpiperazin-1-yl)prop-2-en-1-one] returned an IC50 of 100 to 500 nM.

Consider `C=CC(=O)N1CCC2(CC1)CN(c1ncc3ncnc(Nc4ccc(Oc5ccc6c(c5)nnn6C)c(C)c4)c3n1)C2` [Compound 14, 1-(2-(8-((3-methyl-4-((1-methyl-1H-benzo[d][1,2,3]triazol-5-yl)oxy)phenyl)amino)pyrimido[5,4-d]pyrimidin-2-y1)-2,7-diazaspiro[3.5]nonan-7-yl)prop-2-en-1-one], for which the IC50 was at least 1000 nM.

`C=C(F)C(=O)N1CCN(c2ncc3ncnc(Nc4ccc(Oc5ccc6c(c5)nnn6C)c(C)c4)c3n2)C[C@@H]1CF` (single isomer, unassigned) [Compound 218] showed an IC50 of at least 1000 nM.

In turn, `C=CC(=O)N1CCN(c2ncc3ncnc(Nc4cc(C)c(Oc5cc(F)c6c(c5)ncn6C)cc4OC)c3n2)CC1` [Compound 38, 1-(4-(8-((4-((7-fluoro-1-methyl-1H-benzo[d]imidazol-5-y1)oxy)-2-methoxy-5-methylphenyl)amino)pyrimido[5,4-d]pyrimidin-2-yl)piperazin-1-yl)prop-2-en-1-one 2,2,2-trifluoroacetate] returned an IC50 of 100 to 500 nM.

`C=CC(=O)N1CCN(c2ncc3ncnc(Nc4ccc(Oc5cnn6ccnc6c5)c(C)c4)c3n2)CC1` [Compound 234, 1-(4-(8-((4-(imidazo[1,2-b]pyridazin-7-yloxy)-3-methylphenyl)amino)pyrimido[5,4-d]pyrimidin-2-yl)piperazin-1-yl)prop-2-en-1-one] displayed an IC50 of under 50 nM.

`C=CC(=O)N1CCN(c2ncc3ncnc(Nc4ccc(Oc5ccc6c(c5)nnn6C)c(C(F)(F)F)c4)c3n2)CC1` [Compound 43, 1-(4-(8-((4-((1-methyl-1H-benzo[d][1,2,3]triazol-5-yl)oxy)-3-(trifluoromethyl)phenyl)amino)pyrimido[5,4-d]pyrimidin-2-yl)piperazin-1-yl)prop-2-en-1-one] gave an IC50 of 100 to 500 nM.

`C=CC(=O)N1CCN(c2nc3c(Nc4ccc(Oc5ccc6c(c5)nnn6C)c(C)c4)ncnc3cc2F)CC1` [Compound 373, 1-(4-(7-fluoro-4-((3-methyl-4-((1-methyl-1H-benzo[d][1,2,3]triazol-5-yl)oxy)phenyl)amino)pyrido[3,2-d]pyrimidin-6-yl)piperazin-1-yl)prop-2-en-1-one] displayed a concentration for half-maximal inhibition (IC50) of 100 to 500 nM.

`COC[C@@H]1CN(c2ccc3ncnc(Nc4ccc(Oc5ccc6c(c5)nnn6C)c(C)c4)c3n2)CCN1C(=O)/C=C/CF` [Compound 363, (S,E)-4-fluoro-1-(2-(methoxymethyl)-4-(4-((3-methyl-4-((1-methyl-1H-benzo[d][1,2,3]triazol-5-yl)oxy)phenyl)amino)pyrido[3,2-d]pyrimidin-6-yl)piperazin-1-yl)but-2-en-1-one] showed an IC50 of 50 to 100 nM.

The compound `C=CC(=O)N1CC[C@H](Oc2ncc3ncnc(Nc4ccc(Oc5cc(F)c6c(c5)ncn6C)c(C)c4)c3n2)C1` [Compound 389, (S)-1-(3-((8-((4-((7-fluoro-1-methyl-1H-benzo[d]imidazol-5-yl)oxy)-3-methylphenyl)amino)pyrimido[5,4-d]pyrimidin-2-yl)oxy)pyrrolidin-1-yl)prop-2-en-1-one] returned an IC50 of under 50 nM.

Turning to `C=C(F)C(=O)N1C2CCC1CN(c1ccc3ncnc(Nc4ccc(Oc5ccc6c(c5)nnn6C)c(C)c4)c3n1)C2` [Compound 87, 2-fluoro-1-(3-(4-((3-methyl-4-((1-methyl-1H-benzo[d][1,2,3]triazol-5-yl)oxy)phenyl)amino)pyrido[3,2-d]pyrimidin-6-yl)-3,8-diazabicyclo[3.2.1]octan-8-yl)prop-2-en-1-one], the IC50 is 500 to 1000 nM.

As for `C=CC(=O)N1CC2CCC1CN2c1ncc2ncnc(Nc3ccc(Oc4ccc5c(c4)nnn5C)c(C)c3)c2n1` (centres unmarked) [Compound 62, 1-(5-(8-((3-methyl-4-((1-methyl-1H-benzo[d][1,2,3]triazol-5-yl)oxy)phenyl)amino)pyrimido[5,4-d]pyrimidin-2-yl)-2,5-diazabicyclo[2.2.2]octan-2-yl)prop-2-en-1-one], the IC50 is under 50 nM.

As for `C=CC(=O)N[C@H]1C[C@@H](C)CN(c2ncc3ncnc(Nc4ccc(Oc5ccc6c(c5)nnn6C)c(C)c4F)c3n2)C1` (single isomer, unassigned) [Compound 204], the half-inhibitory concentration (IC50) fell in the range of 50 to 100 nM.

In turn, `C=CC(=O)N1CCN(c2ccc3ncnc(Nc4cc(C)c(Oc5ccc6c(c5)nnn6C)c(F)c4)c3n2)C[C@H]1C` [Compound 255, (R)-1-(4-(4-((3-fluoro-5-methyl-4-((1-methyl-1H-benzo[d][1,2,3]triazol-5-yl)oxy)phenyl)amino)pyrido[3,2-d]pyrimidin-6-yl)-2-methylpiperazin-1-yl)prop-2-en-1-one] registered an IC50 of 50 to 100 nM.

With `C=CC(=O)N1CCN(c2ncc3ncnc(Nc4ccc(Oc5cnn6ccnc6c5)c(C)c4F)c3n2)CC1` [Compound 237, 1-(4-(8-((2-fluoro-4-(imidazo[1,2-b]pyridazin-7-yloxy)-3-methylphenyl)amino)pyrimido[5,4-d]pyrimidin-2-yl)piperazin-1-yl)prop-2-en-1-one], the IC50 is under 50 nM.

For the compound `C=CC(=O)N1CCN(c2ccc3ncnc(Nc4ccc(Oc5ccc6c(c5)nnn6C)c(C)c4)c3n2)CC1` [Compound 92, 1-(4-(4-((3-methyl-4-((1-methyl-1H-benzo[d][1,2,3]triazol-5-yl)oxy)phenyl)amino)pyrido[3,2-d]pyrimidin-6-yl)piperazin-1-yl)prop-2-en-1-one], the IC50 lay in the range of 50 to 100 nM.

Consider `C=C1CCN(C2CCN(c3ccc4ncnc(Nc5ccc(Oc6ccc7c(c6)nnn7C)c(C)c5F)c4n3)CC2)C1=O` [Compound 241, 1-(1-(4-((2-fluoro-3-methyl-4-((1-methyl-1H-benzo[d][1,2,3]triazol-5-yl)oxy)phenyl)amino)pyrido[3,2-d]pyrimidin-6-yl)piperidin-4-yl)-3-methylenepyrrolidin-2-one], for which the half-inhibitory concentration (IC50) was at least 1000 nM.

Regarding `C=CC(=O)N1CCN(c2ccc3ncnc(Nc4ccc(Oc5cc(F)c6c(c5)nnn6C)c(C)c4)c3n2)CC1` [Compound 97, 1-(4-(4-((4-((7-fluoro-1-methyl-1H-benzo[d][1,2,3]triazol-5-yl)oxy)-3-methylphenyl)amino)pyrido[3,2-d]pyrimidin-6-yl)piperazin-1-yl)prop-2-en-1-one], the IC50 is under 50 nM.

In turn, `C=C(F)C(=O)N1CCN(c2ccc3ncnc(Nc4ccc(Oc5ccc6c(c5)nnn6C)c(C)c4)c3n2)C[C@H]1CC#N` [Compound 86, (R)-2-(1-(2-fluoroacryloyl)-4-(4-((3-methyl-4-((1-methyl-1H-benzo[d][1,2,3]triazol-5-yl)oxy)phenyl)amino)pyrido[3,2-d]pyrimidin-6-yl)piperazin-2-yl)acetonitrile] displayed an IC50 of at least 1000 nM.

`C=C(COC)C(=O)N1CCN(c2ncc3ncnc(Nc4ccc(Oc5ccc6c(c5)nnn6C)c(C)c4)c3n2)CC1` [Compound 54, 2-(methoxymethyl)-1-(4-(8-((3-methyl-4-((1-methyl-1H-benzo[d][1,2,3]triazol-5-yl)oxy)phenyl)amino)pyrimido [5,4-d]pyrimidin-2-yl)piperazin-1-yl) prop-2-en-1-one] returned an IC50 of at least 1000 nM.

Compound `C=CC(=O)N1CCN(c2ncc3ncnc(Nc4ccc(Oc5cc(F)c6c(c5)ncn6C)c(C)c4F)c3n2)CC1` [Compound 111, 1-(4-(8-((2-fluoro-4-((7-fluoro-1-methyl-1H-benzo[d]imidazol-5-yl)oxy)-3-methylphenyl)amino)pyrimido[5,4-d]pyrimidin-2-yl)piperazin-1-y1)prop-2-en-1-one] returned an IC50 of under 50 nM.

The compound `C=C(F)C(=O)N1CCN(c2ncc3ncnc(Nc4ccc(Oc5ccc6c(c5)nnn6C)c(C)c4)c3n2)C[C@H]1CF` (single isomer, unassigned) [Compound 219] came in with an IC50 of at least 1000 nM.

Regarding `C=CC(=O)N1CCN(c2ncc3ncnc(Nc4ccc(Oc5cc(F)c6c(c5)nnn6C)c(C)c4F)c3n2)C[C@@H]1C1CC1` [Compound 192, (S)-1-(2-cyclopropyl-4-(8-((2-fluoro-4-((7-fluoro-1-methyl-1H-benzo[d][1,2,3]triazol-5-yl)oxy)-3-methylphenyl)amino)pyrimido[5,4-d]pyrimidin-2-y1)piperazin-1-yl)prop-2-en-1-one], the IC50 lay within 500 to 1000 nM.

On to `COC[C@@H]1CN(c2ccc3ncnc(Nc4ccc(Oc5ccc6c(c5)nnn6C)c(C)c4F)c3n2)CCN1C(=O)/C=C/CF` [Compound 361, (S,E)-4-fluoro-1-(4-(4-((2-fluoro-3-methyl-4-((1-methyl-1H-benzo[d][1,2,3]triazol-5-yl)oxy)phenyl)amino)pyrido[3,2-d]pyrimidin-6-yl)-2-(methoxymethyl)piperazin-1-yl)but-2-en-1-one], for which the IC50 is 50 to 100 nM.
